We go through 22 compounds from US9394273B2, “Therapeutic prostaglandin receptor agonists” (Allergan, Inc., priority 2014, dated 2016).

Where only a bound is given, the exact number is not on record here.

One may read the EC50 as the concentration that produces a half-maximal response. By Ki is commonly meant the dissociation constant of the complex between target and ligand, obtained from inhibition or displacement.

In test [1] the target is T1, EP2 (Homo sapiens (Human), UniProt P43116). Kind of test: EP2 cAMP functional assay. Type of test: cell-based. An excerpt:
(§1) U.S. patent application publication No. 20070129552, published on Jun. 7, 2007, incorporated by reference herein, describes the methods used to obtain the in vitro data in Table 1 below.

The target of test [2] is T2, prostaglandin EP4 receptor (Homo sapiens (Human), UniProt P35408). Kind of test: EP4 binding assay (Ki). To be noted: read-out: EP4 Ki EC50.
Description: as §1

For a further test, the target named is TP (Homo sapiens (Human), UniProt P21731). Kind of test: Other receptors FLIPR: TP. Type of test: cell-based. To be noted: NA undefined in patent.
Description: as §1

Test [3] deals with T2, prostaglandin EP4 receptor. Kind of test: EP4 cAMP functional assay. Type of test: cell-based.
Description: as §1

Test [4] addresses T1, EP2. Kind of test: EP2 binding assay (Ki).
Description: as §1

The next test has as its target EP3 (Homo sapiens (Human), UniProt P43115). Kind of test: Other receptors FLIPR: EP3. The test is classed as cell-based. To be noted: NA undefined in patent.
Description: as §1

T1 sequence (P43116 whole entry): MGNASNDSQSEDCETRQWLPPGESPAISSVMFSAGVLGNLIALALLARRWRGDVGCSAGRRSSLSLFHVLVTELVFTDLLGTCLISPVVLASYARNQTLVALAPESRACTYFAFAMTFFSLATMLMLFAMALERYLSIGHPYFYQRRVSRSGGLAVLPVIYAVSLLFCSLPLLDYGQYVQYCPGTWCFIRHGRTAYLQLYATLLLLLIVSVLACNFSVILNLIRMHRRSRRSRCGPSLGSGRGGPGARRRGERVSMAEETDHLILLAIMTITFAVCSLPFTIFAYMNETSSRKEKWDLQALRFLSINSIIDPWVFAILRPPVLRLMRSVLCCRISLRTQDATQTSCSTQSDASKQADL
EP3, sequence (P43115 whole entry): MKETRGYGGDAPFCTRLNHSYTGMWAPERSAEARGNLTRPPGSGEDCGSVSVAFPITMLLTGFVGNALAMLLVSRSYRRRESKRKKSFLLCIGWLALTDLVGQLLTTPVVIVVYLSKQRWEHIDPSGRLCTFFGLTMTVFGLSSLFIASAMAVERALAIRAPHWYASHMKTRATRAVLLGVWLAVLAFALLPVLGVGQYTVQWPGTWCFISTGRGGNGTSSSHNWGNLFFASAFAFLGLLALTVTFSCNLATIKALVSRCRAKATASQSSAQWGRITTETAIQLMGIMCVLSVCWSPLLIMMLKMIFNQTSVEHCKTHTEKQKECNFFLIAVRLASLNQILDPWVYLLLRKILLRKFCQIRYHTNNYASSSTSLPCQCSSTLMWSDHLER
TP, sequence (P21731 whole entry): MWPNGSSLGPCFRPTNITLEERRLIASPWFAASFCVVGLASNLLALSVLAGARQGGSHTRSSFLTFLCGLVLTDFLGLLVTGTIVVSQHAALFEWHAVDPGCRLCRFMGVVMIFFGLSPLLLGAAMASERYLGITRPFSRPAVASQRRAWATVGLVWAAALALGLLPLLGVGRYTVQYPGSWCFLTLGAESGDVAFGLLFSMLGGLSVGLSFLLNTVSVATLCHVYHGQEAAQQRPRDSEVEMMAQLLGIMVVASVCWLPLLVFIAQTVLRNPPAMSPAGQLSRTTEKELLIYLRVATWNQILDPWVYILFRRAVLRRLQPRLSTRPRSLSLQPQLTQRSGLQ
T2 sequence (P35408 whole entry): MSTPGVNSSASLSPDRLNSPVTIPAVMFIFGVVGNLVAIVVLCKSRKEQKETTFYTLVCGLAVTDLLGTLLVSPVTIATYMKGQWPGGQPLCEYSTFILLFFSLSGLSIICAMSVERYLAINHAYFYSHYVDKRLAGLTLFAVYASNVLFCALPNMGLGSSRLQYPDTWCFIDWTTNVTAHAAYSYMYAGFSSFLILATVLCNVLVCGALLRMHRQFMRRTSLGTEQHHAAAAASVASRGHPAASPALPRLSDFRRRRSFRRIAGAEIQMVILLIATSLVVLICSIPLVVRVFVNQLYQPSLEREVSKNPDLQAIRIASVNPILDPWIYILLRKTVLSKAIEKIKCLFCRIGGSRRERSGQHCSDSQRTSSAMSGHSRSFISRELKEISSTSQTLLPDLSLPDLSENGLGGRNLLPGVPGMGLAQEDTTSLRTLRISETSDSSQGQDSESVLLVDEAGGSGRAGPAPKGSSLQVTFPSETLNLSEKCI

With `O=C(O)c1ccc(CC[C@H]2C(=O)CC[C@@H]2/C=C/C(O)Cc2cccc(Cl)c2)cc1` (stereo partly drawn) [Entry 7, (E)-4-(2-(2-(4-(3-chlorophenyl)-3-hydroxybut-1-en-1-yl)-5-oxocyclopentyl)ethyl)benzoic acid], the half-maximal effective concentration (EC50) stood at 123 nM at EP2 [1], 4830 nM at TP and 2 nM in test [3]. In addition, the Ki was 2 nM in test [2] and 2760 nM on EP2 [4].

For the compound `O=C(O)c1ccc(CC[C@H]2C(=O)CC[C@@H]2/C=C/C(O)Cc2cccc(F)c2F)cc1` (single isomer, unassigned) [Entry 26, (E)-4-(2-(2-(4-(2,3-difluorophenyl)-3-hydroxybut-1-en-1-yl)-5-oxocyclopentyl)ethyl)benzoic acid], the values for the EC50 (on EP2 [1]; on EP3; in test [3]) were 8 nM, 9950 nM and 0.2 nM, respectively. Further, the inhibition constant Ki in test [2] was 2 nM; at EP2 [4] it was 1240 nM.

With `O=C(O)c1ccc(CC[C@H]2C(=O)CC[C@@H]2/C=C/C(O)Cc2cccc(C(F)(F)F)c2)cc1` (single isomer, unassigned) [Entry 12, (E)-4-(2-(2-(3-hydroxy-4-(3-(trifluoromethyl)phenyl)but-1-en-1-yl)-5-oxocyclopentyl)ethyl)benzoic acid], the EC50 at EP2 [1] amounted to 35 nM; at TP, 218 nM; in test [3], 0.2 nM. For the same compound, the values for the Ki (in test [2]; at EP2 [4]) were 1 nM and 1310 nM, respectively.

In turn, `O=C(O)c1ccc(CC[C@H]2C(=O)CC[C@@H]2/C=C/C(O)Cc2cccc(Br)c2)cc1` (single isomer, unassigned) [Entry 9, (E)-4-(2-(2-(4-(3-bromophenyl)-3-hydroxybut-1-en-1-yl)-5-oxocyclopentyl)ethyl)benzoic acid] had an EC50 on EP2 [1] of 278 nM. On EP2 [4], this compound came in with a Ki of 1450 nM.

For the compound `O=C(O)c1ccc(CC[C@H]2C(=O)CC[C@@H]2/C=C/C(O)Cc2cccc(F)c2)cc1` (single isomer, unassigned) [Entry 5, (E)-4-(2-(2-(4-(3-fluorophenyl)-3-hydroxybut-1-en-1-yl)-5-oxocyclopentyl)ethyl)benzoic acid], the EC50 turned out to be 78 nM at EP2 [1] and 1 nM in test [3]. The Ki in test [2] was determined as 40 nM; on EP2 [4], 3420 nM.

In the case of `O=C(O)c1ccc(CC[C@H]2C(=O)CC[C@@H]2/C=C/C(O)Cc2cc(F)ccc2F)cc1` (single isomer, unassigned) [Entry 28, (E)-4-(2-(2-(4-(2,5-difluorophenyl)-3-hydroxybut-1-en-1-yl)-5-oxocyclopentyl)ethyl)benzoic acid], the EC50 at EP2 [1] came to 10 nM; at EP3, 5990 nM; in test [3], 0.2 nM. Besides, the values for the Ki (in test [2]; at EP2 [4]) were 5 nM and 1300 nM, respectively.

For `COc1cc2ccccc2cc1CC(O)/C=C/[C@H]1CCC(=O)[C@@H]1CCc1ccc(C(=O)O)cc1` (stereo partly drawn) [Entry 17, (E)-4-(2-(2-(3-hydroxy-4-(3-methoxynaphthalen-2-yl)but-1-en-1-yl)-5-oxocyclopentyl)ethyl)benzoic acid], the Ki in test [2] is 4620 nM. The “EP2 Ki (nM)” value on EP2 [4] is over 10K.

`O=C(O)c1ccc(CC[C@H]2C(=O)CC[C@@H]2/C=C/C(O)Cc2ccccc2F)cc1` (single isomer, unassigned) [Entry 21, (E)-4-(2-(2-(4-(2-fluorophenyl)-3-hydroxybut-1-en-1-yl)-5-oxocyclopentyl)ethyl)benzoic acid]: the EC50 came out at 76 nM on EP2 [1] and 4 nM in test [3]. The Ki in test [2] is 64 nM; at EP2 [4], 2220 nM.

With `O=C(O)c1ccc(CC[C@H]2C(=O)CC[C@@H]2/C=C/C(O)Cc2sc3ccccc3c2Cl)cc1` (single isomer, unassigned) [Entry 3, (E)-4-(2-(2-(4-(3-chlorobenzo[b]thiophen-2-yl)-3-hydroxybut-1-en-1-yl)-5-oxocyclopentyl)ethyl)benzoic acid], the “EP2 cAMP EC50 (nM)” value at EP2 [1] is over 10K. Further, in test [2], the Ki stood at 2310 nM. In addition, the EC50 in test [3] worked out at 1280 nM. Also, the “EP2 Ki (nM)” value on EP2 [4] was over 10K.

On to `O=C(O)c1ccc(CC[C@H]2C(=O)CC[C@@H]2/C=C/C(O)Cc2sc3ccccc3c2Cl)cc1` (single isomer, unassigned) [Entry 4, (E)-4-(2-(2-(4-(3-chlorobenzo[b]thiophen-2-yl)-3-hydroxybut-1-en-1-yl)-5-oxocyclopentyl)ethyl)benzoic acid], for which the “EP2 cAMP EC50 (nM)” value on EP2 [1] is listed as over 10K. Moreover, in test [2], the Ki was determined as 603 nM. The same compound had an EC50 in test [3] of 186 nM. In addition, the “EP2 Ki (nM)” value on EP2 [4] was over 10K.

Turning to `O=C(O)c1ccc(CC[C@H]2C(=O)CC[C@@H]2/C=C/C(O)Cc2cccc(C(F)(F)F)c2)cc1` (single isomer, unassigned) [Entry 11, (E)-4-(2-(2-(3-hydroxy-4-(3-(trifluoromethyl)phenyl)but-1-en-1-yl)-5-oxocyclopentyl)ethyl)benzoic acid], the values for the EC50 (on EP2 [1]; in test [3]) were 1010 nM and 16 nM, respectively. The results for the Ki (in test [2]; at EP2 [4]) were 90 nM and 3160 nM, respectively.

Consider `O=C(O)c1ccc(CC[C@H]2C(=O)CC[C@@H]2/C=C/C(O)Cc2cccc(F)c2F)cc1` (single isomer, unassigned) [Entry 25, (E)-4-(2-(2-(4-(2,3-difluorophenyl)-3-hydroxybut-1-en-1-yl)-5-oxocyclopentyl)ethyl)benzoic acid], for which the EC50 worked out at 164 nM at EP2 [1] and 30 nM in test [3]. For the same compound, the Ki is 585 nM in test [2] and 3150 nM at EP2 [4].

`O=C(O)c1ccc(CC[C@H]2C(=O)CC[C@@H]2/C=C/C(O)Cc2ccc3ccccc3c2)cc1` (single isomer, unassigned) [Entry 2]: the Ki in test [2] is 10 nM. In test [3], this compound registered an EC50 of 21 nM. In addition, the “EP2 Ki (nM)” value at EP2 [4] is recorded as over 10K.

On to `COc1ccc2cc(CC(O)/C=C/[C@H]3CCC(=O)[C@@H]3CCc3ccc(C(=O)O)cc3)ccc2c1` (stereo partly drawn) [Entry 16, (E)-4-(2-(2-(3-hydroxy-4-(6-methoxynaphthalen-2-yl)but-1-en-1-yl)-5-oxocyclopentyl)ethyl)benzoic acid], for which the Ki in test [2] was 2660 nM. For the same compound, in test [3], the midpoint of the response, the EC50, lay at 728 nM. Further, on EP2 [4], the “EP2 Ki (nM)” value is over 10K.

As to `O=C(O)c1ccc(CC[C@H]2C(=O)CC[C@@H]2/C=C/C(O)Cc2cc(F)ccc2F)cc1` (single isomer, unassigned) [Entry 27, (E)-4-(2-(2-(4-(2,5-difluorophenyl)-3-hydroxybut-1-en-1-yl)-5-oxocyclopentyl)ethyl)benzoic acid], the EC50 at EP2 [1] turned out to be 125 nM; in test [3], 18 nM. The Ki in test [2] amounted to 457 nM; at EP2 [4], 3630 nM.

On to `O=C(O)c1ccc(CC[C@H]2C(=O)CC[C@@H]2/C=C/C(O)Cc2cccc(Br)c2)cc1` (single isomer, unassigned) [Entry 10, (E)-4-(2-(2-(4-(3-bromophenyl)-3-hydroxybut-1-en-1-yl)-5-oxocyclopentyl)ethyl)benzoic acid], for which the EC50 on EP2 [1] stood at 26 nM; at EP3 it was 180 nM; on TP it was 108 nM. Besides, the affinity on EP2 [4], expressed as Ki, was 947 nM.

For `O=C(O)c1ccc(CC[C@H]2C(=O)CC[C@@H]2/C=C/C(O)Cc2ccc(F)c(F)c2)cc1` (single isomer, unassigned) [Entry 23, (E)-4-(2-(2-(4-(3,4-difluorophenyl)-3-hydroxybut-1-en-1-yl)-5-oxocyclopentyl)ethyl)benzoic acid], the values for the Ki (in test [2]; at EP2 [4]) were 293 nM and 9320 nM, respectively. This compound also came in with an EC50 in test [3] of 21 nM.

As for `O=C(O)c1ccc(CC[C@H]2C(=O)CC[C@@H]2/C=C/C(O)Cc2ccc3ccccc3c2)cc1` (single isomer, unassigned) [Entry 1], the Ki in test [2] amounted to 0.8 nM. The EC50 in test [3] came out at 1 nM. Besides, the “EP2 Ki (nM)” value on EP2 [4] is given as over 10K.

On to `O=C(O)c1ccc(CC[C@H]2C(=O)CC[C@@H]2/C=C/C(O)Cc2ccc(F)cc2)cc1` (single isomer, unassigned) [Entry 19, (E)-4-(2-(2-(4-(4-fluorophenyl)-3-hydroxybut-1-en-1-yl)-5-oxocyclopentyl)ethyl)benzoic acid], for which the Ki worked out at 902 nM in test [2] and 9290 nM at EP2 [4]. In test [3], this compound came in with a half-maximal effective concentration (EC50) of 38 nM.

Consider `O=C(O)c1ccc(CC[C@H]2C(=O)CC[C@@H]2/C=C/C(O)Cc2ccccc2F)cc1` (single isomer, unassigned) [Entry 22, (E)-4-(2-(2-(4-(2-fluorophenyl)-3-hydroxybut-1-en-1-yl)-5-oxocyclopentyl)ethyl)benzoic acid], for which the EC50 worked out at 8 nM at EP2 [1], 4670 nM on EP3 and 0.3 nM in test [3]. Further, the inhibition constant Ki in test [2] came out at 4 nM; at EP2 [4], 1030 nM.

Take `COc1ccc2ccc(CC(O)/C=C/[C@H]3CCC(=O)[C@@H]3CCc3ccc(C(=O)O)cc3)cc2c1` (stereo partly drawn) [Entry 18, (E)-4-(2-(2-(3-hydroxy-4-(7-methoxynaphthalen-2-yl)but-1-en-1-yl)-5-oxocyclopentyl)ethyl)benzoic acid]: the Ki in test [2] is 9 nM. In test [3], this compound gave an EC50 of 2 nM. Also, the “EP2 Ki (nM)” value on EP2 [4] was over 10K.

With `O=C(O)c1ccc(CC[C@H]2C(=O)CC[C@@H]2/C=C/C(O)Cc2ccc3ccsc3c2)cc1` (stereo partly drawn) [Entry 15, (E)-4-(2-(2-(4-(benzo[b]thiophen-6-yl)-3-hydroxybut-1-en-1-yl)-5-oxocyclopentyl)ethyl)benzoic acid], the results for the EC50 (at EP3; in test [3]) were 67 nM and 0.5 nM, respectively. Further, the Ki in test [2] amounted to 41 nM. The OTHER RECEPTORS FLIPR EC50 (nM): TP on TP is under 10000 nM. The “EP2 Ki (nM)” value at EP2 [4] is given as over 10K.
